Results as given in patent publication US20180030074A1, “PHOSPHONIUM COMPOUND AND PRODUCTION METHOD THEREFOR” (priority 2014, published 2018).

Experiments:
[1] = Mouse biodistribution study; type: in vivo, Slc:ICR mice; details: mice; for accumulation of labeled compound in the myocardium versus adjacent organs: i.v., 60 or 120 minutes after administration, gamma counter, n=4; for ratio of radioactivity accumulations in the myocardium and liver (heart/liver ratio): time point of 60 minutes
Experimental: (§1) The animals used in this measurement were 6-8-week-old male Slc:ICR mice (from Japan SLC, Inc.) (n=4). Each of different physiological saline solutions of the [^18F]-labeled compounds (200 μL, 370-740 kBq) used in this measurement was administered to the awake mice via the caudal vein, and after 60 or 120 minutes of the administration, the mice were euthanized by cervical dislocation under isoflurane anesthesia. After blood was sampled from the heart immediately, the heart, lung, liver, spleen, kidney, small intestine, thigh muscle, thigh bone, and brain were excised and measured for amount of radioactivity by a γ counter. The weights of the excised organs were measured, and on that basis, the accumulation rates per gram of the organs with respect to dose (% dose/g of organ, % ID/g) were calculated as indicators for accumulation of the chemical compounds used (n=4).

[2] = tested on: myocardium; experiment: Mouse PET/CT imaging; type: in vivo, Slc:ICR mice; details: mice, i.v. caudal vein; for contrast of myocardial images: PET/CT 60 minutes after administration; for accumulation of radioactivity in the myocardium (PET/CT images): imaged 60 minutes after administration for 10 minutes
Experimental: The animals used in this measurement were 6-10-week-old male Slc:ICR mice (from Japan SLC, Inc.). […] Then, the mice were fixed under isoflurane anesthesia (2%, 1.5 mL/min.), and after 60 minutes of the administration, the whole bodies of the mice were imaged by small-animal PET (ClairvivoPET produced by Shimadzu Corporation) for 10 minutes. Subsequently, while the mice were kept fixed, their whole bodies were imaged by small-animal CT (ClairvivoCT produced by Shimadzu Corporation). The PET data were reconstructed by 3D-DRAMA, and the pixel values of the obtained PET images were converted to SUV to generate SUV images. These images were fused with CT images to produce fused images.

[3] = comparison values quoted without source or species; cited from earlier work
[4] = background statement; cited from earlier work
[5] = Rat biodistribution study; type: in vivo, Wistar rats; details: rats
Experimental: as §1
The biodistribution study of [^18F]TAP-018 in rats was conducted by the same procedure as in Test Example 2 using 6-week-old male Wistar rats (from Japan SLC, Inc.) (n=4). The results are summarized in a bar graph (FIG. 4). […] This value is about ten times higher than the value of 1.5 for [^18F]FBnTP which has been used as a gold standard, and is sufficiently higher than the value of 9.2 for [^18F]FTPP which is currently under clinical study.

[6] = tested on: myocardium; experiment: Small-animal PET study in rats; type: in vivo, Wistar rats; details: i.v., PET 0 to 120 minutes
Experimental: The myocardial imaging study of [^18F]TAP-018 in rats was conducted using 6-week-old male Wistar rats. 200 μL (7.83-9.66 MBq) of a physiological saline solution of the test compound [^18F]TAP-018 was administered via the caudal vein to the rats fixed under isoflurane anesthesia (2%, 1.5 mL/min.), and then the whole bodies of the rats were imaged by small-animal PET at time points from 0 to 120 minutes after the administration. Subsequently, while the rats were kept fixed, their whole bodies were imaged by small-animal CT. The PET data were reconstructed by 3D-DRAMA, and the pixel values of the obtained PET images were converted to SUV to generate SUV images. These images were fused with CT images to produce fused images. Further, the locations of the myocardium, lung and liver were identified based on the fused images, and regions of interest (ROI) were drawn to calculate respective SUVavg values.

Row | Structure (SMILES) | accumulation of labeled compound in the myocardium versus adjacent organs [1] | ratio of radioactivity accumulations in the myocardium and liver (heart/liver ratio) [1] | contrast of myocardial images [2] | accumulation of radioactivity in the myocardium (PET/CT images) [2] | heart/liver ratio (comparison values of reference agents) [3] | accumulation in liver relative to myocardium [4] | accumulation in the heart ([5]; i.v., n=4) | heart/liver ratio ([5]; time point of 60 minutes) | accumulation of radioactivity in the heart (radioactivity-time curve) [6] | disappearance of radioactivity from the liver (radioactivity-time curve) [6]
1 | [18F]CCOc1cccc([P+](CCCc2ccccc2)(c2ccccc2)c2ccccc2)c1.[Br-] [[^18F]TAP-022, [^18F][3-(2-fluoroethoxy)phenyl]-(3-phenylpropyl)-diphenylphosphonium bromide] | more highly accumulates in the myocardium than in other adjacent organs | 4.98 | high-contrast myocardial images were obtained | accumulation of radioactivity in the myocardium was observed |  |  |  |  |  | 
2 | COc1ccc(C[P+](c2ccccc2)(c2ccccc2)c2cccc(OCC[18F])c2)cc1 [[^18F]TAP-019, [3-(2-[^18F]fluoroethoxy)phenyl]-(4-methoxyphenyl)methyl-diphenylphosphonium bromide] | more highly accumulates in the myocardium than in other adjacent organs | 4.56 | high-contrast myocardial images were obtained | accumulation of radioactivity in the myocardium was observed |  |  |  |  |  | 
3 | [18F]c1ccc(C[P+](c2ccccc2)(c2ccccc2)c2ccccc2)cc1.[Br-] [[^18F]FBnTP, 4-[^18F]fluorobenzyl-triphenylphosphonium bromide] |  |  |  |  | 1.5 | accumulating not only in the myocardium but also in the liver adjacent to the myocardium to the same extent |  |  |  | 
4 | [18F]c1ccc([P+](c2ccccc2)(c2ccccc2)c2ccccc2)cc1 [[^18F]FTPP] |  |  |  |  | 9.2 |  |  |  |  | 
5 | [18F]CCOc1ccc([P+](Cc2ccccc2)(c2ccccc2)c2ccccc2)cc1 [[^18F]TAP-001, Benzyl-[4-(2-[^18F]fluoroethoxy)phenyl]-diphenylphosphonium bromide] | more highly accumulates in the myocardium than in other adjacent organs | 2.70 |  | accumulation of radioactivity in the myocardium was observed |  |  |  |  |  | 
6 | [18F]CCOc1cccc([P+](Cc2ccccc2)(c2ccccc2)c2ccccc2)c1.[Br-] [[^18F]TAP-018, Benzyl[3-(2-[^18F]fluoroethoxy)phenyl]-diphenylphosphonium bromide] | more highly accumulates in the myocardium than in other adjacent organs | 9.40 | high-contrast myocardial images were obtained | accumulation of radioactivity in the myocardium was observed |  |  | highly accumulated in the heart | about 15.5 | a high level of radioactivity accumulated in the heart immediately after the administration | radioactivity disappeared rapidly from the liver until 10 minutes after the administration
